Earlier results on one compound are cited in US11576862B2, “Methods and compositions for preparing a silk microsphere” (Trustees of Tufts College, priority 2012, dated 2023).

Structures can show the parent of a compound that is named as a salt.

For the compound `CC12CC3CC(C)(C1)CC(N)(C3)C2` [Memantine hydrochloride, 3,5-dimethyltricyclo[3.3.1.1]decan-1amine], the water solubility was 50 mg/mL.
